Laboratory results from patent US20020192776A1, “Heliothis glutamate receptor” (Aventis Cropscience SA, priority 2000, published 2002).

Test system: lepidopteran glutamate-gated chloride channel
Experiment: two-electrode voltage clamp recordings of Xenopus oocytes injected with HEGE2 mRNA
Format: cell-based, Heliothis virescens
Conditions: held at -80 mV
Description: Messenger RNA was produced from the cDNA template of HEGE2 by in vitro transcription with the Ambion mMESSAGE mMACHINE IN VITRO TRANSCRIPTION KIT (Ambion, Inc.). The mRNA was injected into oocytes by the following procedure.
Frogs were anesthetized in a 2 gram/liter solution of 3-amino benzoic acid ethyl ester for thirty minutes, after which oocytes were surgically removed from the abdominal cavity. Follicles were digested by collagenase treatment under sterile conditions by standard methods. Oocytes were injected with 50 nl of 1 μg/μl mRNA by glass electrodes.
After a 24 hr incubation, two-electrode voltage clamp recordings were made. Recordings were made using a Dagan, TEV200 voltage clamp interfaced with a MacLab4 data acquisition system running the MacLab Chart data acquisition/analysis software. Oocytes were positioned under a dissection scope under constant perfusion with frog saline (96 mM of NaCl, 2 mM of KCl, 1 mM of MgCl2, 1.8 mM of CaCl2 and 10 mM of HEPES, pH 7.5) using a Razel syringe perfusion pump. Model A99-FY at 93.9 cc/hr. Glass electrodes (A-M Systems. Inc. 1.5 mm×0.86 mm) were filled with 3 M KCl and resistance (a function of the diameter of the channel opening) was measured to be between 0.7 and 1.5 mega ohms. Both electrodes were inserted into the oocyte at opposite sides, the resting potential was recorded and the voltage clamp turned on. […]

Compound | activation of membrane (chloride) current (100 uM glutamate, Xenopus oocytes injected with 50 ng of HEGE2 mRNA, FIG. 1) | activation of current in oocytes (One micromolar Ivermectin phosphate, Xenopus oocytes expressing HEGE2)
N[C@@H](CCC(=O)O)C(=O)O [glutamate] | activate a membrane current | –
Ivermectin phosphate | – | slowly and irreversibly activated current
